Source: PubChem BioAssay (NCI)
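Tested at 5 concentrations; 48 h exposure; 96-well plates; endpoints linearly interpolated, else capped at highest concentration. TGI: concentration producing complete growth inhibition.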

Legend:
Experiment in all cases: DTP human tumour cell line panel, 48 h
HCC-2998 colon = system: HCC-2998 colon
HCT-15 colon = system: HCT-15 colon
HL-60(TB) leukemia = system: HL-60(TB) leukemia
HOP-62 NSCLC = system: HOP-62 NSCLC
HS 578T breast = system: HS 578T breast
K-562 leukemia = system: K-562 leukemia
MDA-MB-231 breast = system: MDA-MB-231 breast
MDA-MB-435 = system: MDA-MB-435
MDA-N = system: MDA-N
MOLT-4 leukemia = system: MOLT-4 leukemia
NCI-H522 lung = system: NCI-H522 lung
PC-3 prostate = system: PC-3 prostate
RXF 393 renal = system: RXF 393 renal
SK-MEL-2 melanoma = system: SK-MEL-2 melanoma
SN12C renal = system: SN12C renal
SR leukemia = system: SR leukemia
TK-10 renal = system: TK-10 renal
RPMI-8226 leukemia = system: RPMI-8226 leukemia
IGROV1 ovarian = system: IGROV1 ovarian

SMILES	TGI (HCC-2998 colon) [µM]	TGI (HCT-15 colon) [µM]	TGI (HL-60(TB) leukemia) [µM]	TGI (HOP-62 NSCLC) [µM]	TGI (HS 578T breast) [µM]	TGI (K-562 leukemia) [µM]	TGI (MDA-MB-231 breast) [µM]	TGI (MDA-MB-435) [µM]	TGI (MDA-N) [µM]	TGI (MOLT-4 leukemia) [µM]	TGI (NCI-H522 lung) [µM]	TGI (PC-3 prostate) [µM]	TGI (RXF 393 renal) [µM]	TGI (SK-MEL-2 melanoma) [µM]	TGI (SN12C renal) [µM]	TGI (SR leukemia) [µM]	TGI (TK-10 renal) [µM]	TGI (RPMI-8226 leukemia) [µM]	TGI (IGROV1 ovarian) [µM]
Clc1ncnc2c1nc(C#Cc1ccccc1)n2Cc1ccccc1	27	36.6	> 100	> 100	> 100	> 100	71	43	53.8	> 100	36.7	> 100	48	98.4	60	> 100	> 100	–	–
O=C1CCC[C@H]2O[C@@H](COCc3ccccc3)C[C@@H]12	–	> 100	> 100	> 100	> 100	> 100	> 100	> 100	> 100	> 100	–	> 100	–	> 100	> 100	> 100	> 100	> 100	–
O=C(NCCNCCO)N/N=C/c1ccc([N+](=O)[O-])cc1	> 100	> 100	> 100	> 100	> 100	> 100	> 100	> 100	> 100	> 100	> 100	> 100	–	> 100	> 100	> 100	> 100	–	> 100
COc1ccc(C2NC3=C(CCCC3)C3(C#N)C(=O)N=C(N)C23C#N)cc1 (centres undefined)	> 100	> 100	> 100	> 100	> 100	> 100	> 100	> 100	> 100	> 100	> 100	> 100	> 100	> 100	> 100	–	> 100	> 100	> 100
Cc1ccc(C(=O)C#Cc2cn(C3CC(O)C(CO)O3)c(=O)[nH]c2=O)cc1 (centres undefined)	> 100	> 100	–	> 100	> 100	–	> 100	> 100	> 100	–	23.9	> 100	> 100	> 100	> 100	> 100	> 100	> 100	> 100
N#Cc1ccc(OCc2ccc3nc(-c4ccccc4)c(Cl)nc3c2)cc1	> 100	> 100	> 100	> 100	> 100	–	> 100	> 100	> 100	> 100	> 100	> 100	–	> 100	> 100	> 100	> 100	> 100	> 100
Cc1ccc(NC(=O)CC(=O)n2nc(C)c(N=Nc3ccc(S(=O)(=O)CCOS(=O)(=O)O)cc3)c2C)cc1	> 100	–	> 100	> 100	> 100	> 100	> 100	> 100	> 100	> 100	> 100	> 100	> 100	> 100	–	–	> 100	> 100	> 100
CN(/N=C/c1cccs1)c1ccc([N+](=O)[O-])cc1[N+](=O)[O-]	> 100	> 100	> 100	> 100	> 100	> 100	> 100	> 100	> 100	> 100	> 100	> 100	> 100	–	> 100	> 100	> 100	> 100	> 100
Cc1cc(C)c(C)c(-n2[nH]c(=O)n(C)c2=O)c1C	–	> 100	> 100	> 100	> 100	> 100	> 100	> 100	> 100	> 100	–	> 100	–	> 100	> 100	> 100	> 100	> 100	> 100
O=C(O)C/C(=C\c1ccccc1)C(=O)O	> 100	> 100	> 100	> 100	> 100	93.5	> 100	> 100	> 100	> 100	> 100	> 100	> 100	> 100	> 100	–	> 100	> 100	> 100
O=C1C(N=Nc2ccc(-c3nc4ccccc4o3)cc2)NC(=S)N1c1ccccc1 (centres undefined)	> 100	> 100	0.742	> 100	> 100	> 100	> 100	> 100	> 100	> 100	> 100	> 100	> 100	> 100	> 100	85.6	> 100	–	> 100
Nc1ccc(S(=O)(=O)c2ccc(NC(=O)c3cccnc3)cc2)cc1	> 100	> 100	> 100	> 100	> 100	> 100	> 100	> 100	> 100	> 100	> 100	> 100	> 100	–	> 100	–	> 100	> 100	> 100
COc1ccc(/C=C(\NC(=O)c2ccccc2)C(=O)NN(C)c2ccnc3cc(Cl)ccc23)cc1OC	–	55.4	–	> 100	> 100	51.2	60.3	49.6	65.7	47.7	44.1	70.2	38.4	46	66.9	41.3	> 100	45.3	47.6
COC1OC(COC(=O)NCCCCC(=O)C(F)(F)F)C(O)C(O)C1O (centres undefined)	> 100	> 100	> 100	> 100	> 100	> 100	> 100	> 100	> 100	> 100	–	> 100	> 100	> 100	> 100	> 100	> 100	> 100	> 100
Cc1c2cnccc2nc2[nH]c3ccncc3c12	–	28.8	61.9	18.4	> 100	> 100	> 100	27.6	43.2	> 100	18.5	> 100	–	27.6	> 100	11.5	24.3	19.5	20.4
CN(C)Cc1cc(N=Nc2ccccc2Cl)cc(CN(C)C)c1O	> 100	> 100	62.8	> 100	> 100	> 100	> 100	> 100	79.3	> 100	28.8	> 100	88.3	–	> 100	> 100	> 100	> 100	> 100
O=C1N[C@@H]([C@H](CCCCCO)OC(=O)c2ccccc2)CO1	–	> 100	> 100	> 100	> 100	> 100	> 100	> 100	> 100	> 100	–	> 100	> 100	> 100	> 100	> 100	> 100	> 100	> 100
O=C1CC(CC(OCc2ccccc2)C(COCc2ccccc2)OCc2ccccc2)CC(=O)N1 (centres undefined)	> 100	> 100	> 100	> 100	> 100	> 100	> 100	85	82.4	74.8	61.7	63.9	> 100	–	> 100	> 100	–	> 100	> 100
Cc1cc(C2(c3cc(C)c(O)c(C(=O)O)c3)OS(=O)(=O)c3ccccc32)cc(C(=O)O)c1O	–	> 100	> 100	> 100	> 100	> 100	> 100	> 100	> 100	> 100	> 100	> 100	> 100	> 100	> 100	> 100	> 100	> 100	> 100
C1=NCCOCCN=Cc2ccccc2OCc2cccc(n2)COc2ccccc21	–	16.5	16.3	> 25	15	> 25	19.1	3.68	6.96	18.4	> 25	> 25	> 25	> 25	15.2	9.91	20.4	14	> 25
NC(N)=NC(N)=Nc1c(F)c(F)c(F)c(F)c1F	–	> 100	–	> 100	> 100	> 100	> 100	> 100	> 100	–	> 100	> 100	> 100	> 100	> 100	> 100	> 100	> 100	> 100
